What was measured:
Micrococcus luteus = experiment: Filter disc bioassay on agar plates seeded with Micrococcus luteus; type: cell-based; details: for Zone Size: agar plate
Experimental: Samples of 2-carboxymethyl-5-hydroxy-1,2-oxazin-3-one and penicillin were applied to a filter disc in the amounts indicated in Table 1, below. The discs were applied to agar plates seeded with Micrococcus luteus, and the plates were incubated over night at 37° C.
Samples of 2-[2-carboxypropyl]-5-hydroxy-1,2-oxazin-3-one and desacetoxycephalosporin G were applied to a filter disc in the amounts indicated in Table 2, below. The discs were applied to agar plates seeded with Micrococcus luteus, and the plates were incubated overnight at 37° C.

With `CC(CN1OC=C(O)CC1=O)C(=O)O` (stereo not drawn) [2-[2-carboxypropyl]-5-hydroxy-1,2-oxazin-3-one] the “Zone Size” value (Micrococcus luteus; 12.0 micrograms on filter disc, incubated overnight at 37° C.) was 2.0 cm and the “antibacterial activity, times the activity of 2-carboxymethyl-5-hydroxy-1,2-oxazin-3-one” value (Micrococcus luteus; relative to 2-carboxymethyl-5-hydroxy-1,2-oxazin-3-one, from Tables 1 and 2) was “approximately 50 times”.
For `O=C(O)CN1OC=C(O)CC1=O` [2-carboxymethyl-5-hydroxy-1,2-oxazin-3-one], the “Zone Size” value (Micrococcus luteus; 100 micrograms on filter disc, incubated over night at 37° C.) was 1.1 cm, the “Zone Size” value (Micrococcus luteus; 1000 micrograms on filter disc, incubated over night at 37° C.) was 2.0 cm and the “antibacterial activity (in words)” value (Micrococcus luteus; judged from Tables 1 and 2) was “weak antibacterial activity”. For the same compound, the “antibacterial activity, times less than that of penicillin” value (Micrococcus luteus; relative to penicillin, from Tables 1 and 2) was “at least 1000 times”.
`C[C@H](C(=O)OC(C)(C)C)N1OC[C@@H](O)[C@@H](O)C1=O` [8b, (αR,4R,5R)-2-(α-tert-Butoxycarbonylethyl)-4,5-dihydroxy-1,2-oxazinan-3-one] showed a melting point of 93 to 94 °C.
For `CC1(C)S[C@@H]2[C@H](NC(=O)Cc3ccccc3)C(=O)N2[C@H]1C(=O)O` [Penicillin G, reference compound], the “Zone Size” value (Micrococcus luteus; 0.1 micrograms on filter disc, incubated over night at 37° C.) was 1.6 cm.
In the case of `CC1=C(C(=O)O)N2C(=O)[C@@H](NC(=O)Cc3ccccc3)[C@H]2SC1` [desacetoxycephalosporin G, reference compound], the “Zone Size” value (Micrococcus luteus; 2.5 micrograms on filter disc, incubated overnight at 37° C.) was 2.5 cm.

From patent US6861416B2, “Oxazinones and methods for their use and synthesis” (Chirologix Pharmaceuticals, Inc., priority 2001, dated 2005)
